Experimental data published in patent US9845310B2 (priority 2015, dated 2017).

System: naive Sprague Dawley rat hearts
Details: ex vivo isolated perfused rat heart, percent change over vehicle; for Isolated Heart Assay dP/dtmax(%): contractility; for Isolated Heart Assay dP/dtmin(%): relaxation (lusitropic)

COc1cccc(-c2nnc(NS(=O)(=O)[C@@H](C)[C@H](OC)c3ncc(C)cn3)n2-c2cccnc2OC)n1 (atropisomer, axis not shown) [Example 741.0, (1R,2S, P)-1-methoxy-N-(4-(2-methoxy-3-pyridinyl)-5-(6-methoxy-2-pyridinyl)-4H-1,2,4-triazol-3-yl)-1-(5-methyl-2-pyrimidinyl)-2-propanesulfonamide and (1R,2S, M)-1-methoxy-N-(4-(2-methoxy-3-pyridinyl)-5-(6-methoxy-2-pyridinyl)-4H-1,2,4-triazol-3-yl)-1-(5-methyl-2-pyrimidinyl)-2-propanesulfonamide]
Isolated Heart Assay dP/dtmax(%): 1.4%
Isolated Heart Assay dP/dtmin(%): 6.6%

COc1cccc(OC)c1-n1c(NS(=O)(=O)[C@@H](C)[C@H](C)c2ncc(F)cn2)nnc1-c1cccnc1 (racemic) [Example 184.0, (2R,3S)-N-(4-(2,6-dimethoxyphenyl)-5-(3-pyridinyl)-4H-1,2,4-triazol-3-yl)-3-(5-fluoro-2-pyrimidinyl)-2-butanesulfonamide or (2S,3R)-N-(4-(2,6-dimethoxyphenyl)-5-(3-pyridinyl)-4H-1,2,4-triazol-3-yl)-3-(5-fluoro-2-pyrimidinyl)-2-butanesulfonamide]
Isolated Heart Assay dP/dtmax(%): 14.5%
Isolated Heart Assay dP/dtmin(%): 14.0%

COc1cccc(OC)c1-n1c(NS(=O)(=O)[C@H](C)[C@@H](OC)c2ccc(Cl)cn2)nnc1-c1cccnc1 (single isomer, unassigned) [Example 531.0, (1S,2R)-1-(5-chloro-2-pyridinyl)-N-(4-(2,6-dimethoxyphenyl)-5-(3-pyridinyl)-4H-1,2,4-triazol-3-yl)-1-methoxy-2-propanesulfonamide or (1R,2S)-1-(5-chloro-2-pyridinyl)-N-(4-(2,6-dimethoxyphenyl)-5-(3-pyridinyl)-4H-1,2,4-triazol-3-yl)-1-methoxy-2-propanesulfonamide]
Isolated Heart Assay dP/dtmax(%): 4.1%
Isolated Heart Assay dP/dtmin(%): 1.9%

COc1cccc(OC)c1-n1c(NS(=O)(=O)[C@H](C)[C@@H](O)c2cnc(C)cn2)nnc1-c1cncc(C)c1 (single isomer, unassigned) [Example 569.0, (1S,2R)-N-(4-(2,6-dimethoxyphenyl)-5-(5-methyl-3-pyridinyl)-4H-1,2,4-triazol-3-yl)-1-hydroxy-1-(5-methyl-2-pyrazinyl)-2-propanesulfonamide or (1R,2S)-N-(4-(2,6-dimethoxyphenyl)-5-(5-methyl-3-pyridinyl)-4H-1,2,4-triazol-3-yl)-1-hydroxy-1-(5-methyl-2-pyrazinyl)-2-propanesulfonamide]
Isolated Heart Assay dP/dtmax(%): 12.4%
Isolated Heart Assay dP/dtmin(%): 12.7%

COc1cccc(OC)c1-n1c(NS(=O)(=O)[C@H](C)[C@@H](OC)c2cnc(C)cn2)nnc1-c1cncc(C)c1 (single isomer, unassigned) [Example 571.0, (1S,2R)-N-(4-(2,6-dimethoxyphenyl)-5-(5-methyl-3-pyridinyl)-4H-1,2,4-triazol-3-yl)-1-methoxy-1-(5-methyl-2-pyrazinyl)-2-propanesulfonamide or (1R,2S)-N-(4-(2,6-dimethoxyphenyl)-5-(5-methyl-3-pyridinyl)-4H-1,2,4-triazol-3-yl)-1-methoxy-1-(5-methyl-2-pyrazinyl)-2-propanesulfonamide]
Isolated Heart Assay dP/dtmax(%): 13.3%
Isolated Heart Assay dP/dtmin(%): 18.8%

COc1cnc([C@H](O)[C@@H](C)S(=O)(=O)Nc2nnc(-c3cccnc3)n2-c2c(OC)cccc2OC)cn1 (single isomer, unassigned) [Example 706.0, (1S,2R)-N-(4-(2,6-dimethoxyphenyl)-5-(3-pyridinyl)-4H-1,2,4-triazol-3-yl)-1-hydroxy-1-(5-methoxy-2-pyrazinyl)-2-propanesulfonamide or (1R,2S)-N-(4-(2,6-dimethoxyphenyl)-5-(3-pyridinyl)-4H-1,2,4-triazol-3-yl)-1-hydroxy-1-(5-methoxy-2-pyrazinyl)-2-propanesulfonamide]
Isolated Heart Assay dP/dtmax(%): 9.1%
Isolated Heart Assay dP/dtmin(%): 4.0%

COc1ncnc(OC)c1-n1c(NS(=O)(=O)[C@@H](C)[C@H](OC)c2ccc(Cl)cn2)nnc1-c1cccnc1 (single isomer, unassigned) [Example 711.0, (1R,2S)-1-(5-chloro-2-pyridinyl)-N-(4-(4,6-dimethoxy-5-pyrimidinyl)-5-(3-pyridinyl)-4H-1,2,4-triazol-3-yl)-1-methoxy-2-propanesulfonamide or (1S,2R)-1-(5-chloro-2-pyridinyl)-N-(4-(4,6-dimethoxy-5-pyrimidinyl)-5-(3-pyridinyl)-4H-1,2,4-triazol-3-yl)-1-methoxy-2-propanesulfonamide]
Isolated Heart Assay dP/dtmax(%): 9.4%
Isolated Heart Assay dP/dtmin(%): 1.1%

Cc1cnc([C@@H](C)[C@H](C)S(=O)(=O)Nc2nnc(-c3cncc(C)c3)n2-c2c(F)cccc2F)nc1 (single isomer, unassigned) [Example 826.0, (2S,3R)-N-(4-(2,6-difluorophenyl)-5-(5-methylpyridin-3-yl)-4H-1,2,4-triazol-3-yl)-3-(5-methylpyrimidin-2-yl)butane-2-sulfonamide or (2R,3S)-N-(4-(2,6-difluorophenyl)-5-(5-methylpyridin-3-yl)-4H-1,2,4-triazol-3-yl)-3-(5-methylpyrimidin-2-yl)butane-2-sulfonamide]
Isolated Heart Assay dP/dtmax(%): 6.02%
Isolated Heart Assay dP/dtmin(%): 5.16%

COc1cccc(OC)c1-n1c(NS(=O)(=O)[C@@H](C)[C@@H](OC(C)C)c2ncc(C)cn2)nnc1-c1cccnc1 (stereo in doubt) [Example 627.0, (1R,2R)-N-(4-(2,6-dimethoxyphenyl)-5-(3-pyridinyl)-4H-1,2,4-triazol-3-yl)-1-(1-methylethoxy)-1-(5-methyl-2-pyrimidinyl)-2-propanesulfonamide, (1S,2S)-N-(4-(2,6-dimethoxyphenyl)-5-(3-pyridinyl)-4H-1,2,4-triazol-3-yl)-1-(1-methylethoxy)-1-(5-methyl-2-pyrimidinyl)-2-propanesulfonamide]
Isolated Heart Assay dP/dtmax(%): No effect
Isolated Heart Assay dP/dtmin(%): No effect

CCO[C@H](c1ncc(F)cn1)[C@H](C)S(=O)(=O)Nc1nnc(-c2cccnc2)n1-c1c(OC)cccc1OC [Example 51.0, (1R,2S)-N-(4-(2,6-dimethoxyphenyl)-5-(3-pyidinyl)-4H-1,2,4-triazol-3-yl)-1-ethoxy-1-(5-fluoro-2-pyrimidinyl)-2-propanesulfonamide]
Isolated Heart Assay dP/dtmax(%): 2.0%
Isolated Heart Assay dP/dtmin(%): 2.0%

CCO[C@H](c1ncc(F)cn1)[C@H](C)S(=O)(=O)Nc1nnc(-c2cncc(C)c2)n1-c1c(OC)cccc1OC [Example 79.0, (1R,2S)-N-(4-(2,6-dimethoxyphenyl)-5-(5-methyl-3-pyridinyl)-4H-1,2,4-triazol-3-yl)-1-ethoxy-1-(5-fluoro-2-pyrimidinyl)-2-propanesulfonamide]
Isolated Heart Assay dP/dtmax(%): 10.0%
Isolated Heart Assay dP/dtmin(%): 5.0%

COc1cccc(OC)c1-n1c(NS(=O)(=O)[C@@H](C)[C@H](OC)c2ncc(F)cn2)nnc1-c1cncc(C)c1 [Example 80.0, (1R,2S)-N-(4-(2,6-dimethoxyphenyl)-5-(5-methyl-3-pyridinyl)-4H-1,2,4-triazol-3-yl)-1-(5-fluoro-2-pyrimidinyl)-1-methoxy-2-propanesulfonamide]
Isolated Heart Assay dP/dtmax(%): 5.0%
Isolated Heart Assay dP/dtmin(%): −2.7%
